# Source: publication PMC10388363, “Novel 1,4-Dihydropyridines as Specific Binders and Activators of SIRT3 Impair Cell Viability and Clonogenicity and Downregulate Hypoxia-Induced Targets in Cancer Cells” (Journal of Medicinal Chemistry, 2023)
# Read-outs that look alike come from different tables or passages of the source.
# Tests used:
# HaCaT cells = experiment: Cell viability / cell death in healthy HaCaT cells; format: cell-based, human; details: for toxicity against healthy HaCaT cells: 5, 10, and 25 μM, 24 and 48 h; for Cell death (%) T24 / Cell death (%) T48: HaCaT; for Cell death (%) T24: 24 h; for Cell death (%) T48: 48 h
# Description: Breast cancer cell line MDA-MB-231, anaplastic thyroid cancer cell line CAL-62 and human keratinocytes HaCaT were purchased from ATCC and were cultured in RPMI 1640 medium (R0883 Sigma Aldrich-MERCK) (MDA-MB-231 and CAL-62) or DMEM medium (11965092, Gibco) supplemented with 10% fetal bovine serum (Sigma-Aldrich-MERCK, F9665), 2 mM glutamine (G7513; Sigma-Aldrich-MERCK), 100 units/mL penicillin and 0.1 mg/mL streptomycin (P0781; Sigma-Aldrich-MERCK). Adherent cells were detached by Trypsin–EDTA solution (TA049; Sigma-Aldrich-MERCK). Cells were maintained at 37 °C in humidified incubator with 5% CO2. Cells were treated with […] (CoCl2) (Merck; C8661) dissolved in distilled, sterile water for 24 h to induce hypoxia (200 μM). […] SIRT3 inhibitor 3-TYP was dissolved in DMSO and added to a final concentration of 1 μM for 24 and/or 48 h.
# (§1) Cell viability was assessed by the trypan blue exclusion assay. At the end of treatments, cells were harvested and stained with 0,4% trypan blue (Merck; T8154). The cell suspension was applied to a hemocytometer and counted with phase contrast microscopy (NIKON EclipseTE2000U, Nikon Netherlands, Amsterdam, The Netherlands).
# MDA-MB-231 cells = experiment: Scratch assay, MDA-MB-231 cell migration; format: cell-based, human; details: 50 μM, 48 h
# Description: Next, a scratch assay on MDA-MB-231 cells after treatment with 3c and 3d at 50 μM for 48 h was performed to assess their effect on cell migration (Figure 14).
# Cell lines were maintained in culture medium (as above) until reaching 100% confluence, then shifted to a serum-depleted culture medium to inhibit cell proliferation, as described in Magistri et al.;[83] a scratch wound was created on the cell layer using a micropipette tip. Micrographs were taken at 0 and 48 h after the scratch. Cell-devoid areas at 0 and 48 h after the scratch were quantified through the Fiji ImageJ image processing package.
# human SIRT3 = target: T1, human SIRT3 (Homo sapiens, UniProt Q9NTG7); experiment: PncA/GDH-coupled deacylation assay, SIRT3 activation (ACS2-acK642 substrate); format: biochemical; details: 100 μM, 387% vs 269%
# T1 construct: pET151D/Topo (Sirt3-114-380 and Sirt5-34-302); His tag (N, cleaved yes); made in house; host or cells: Escherichia coli
# T1 sequence (Q9NTG7 114-380): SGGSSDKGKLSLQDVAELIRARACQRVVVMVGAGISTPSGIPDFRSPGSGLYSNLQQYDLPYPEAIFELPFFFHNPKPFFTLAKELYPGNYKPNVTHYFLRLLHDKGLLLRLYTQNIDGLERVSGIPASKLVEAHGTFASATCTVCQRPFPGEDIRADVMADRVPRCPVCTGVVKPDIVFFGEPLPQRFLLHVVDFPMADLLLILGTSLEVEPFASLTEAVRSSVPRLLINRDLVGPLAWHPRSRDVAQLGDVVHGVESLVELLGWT
# Description: To avoid artifacts and other non-specific effects, instead of the “Fluor-de-Lys” (FdL) substrate, we used a PncA/GDH-coupled deacylation assay by measuring the NADPH oxidation to NADP^+ that relies on isoform-specific non-modified physiological acetyl or succinyl substrates [p53-acK381 for SIRT1, α-tubulin-[…] for SIRT2, acetyl-CoA synthetase 2 (ACS2)-acK642 for SIRT3, and CPS1-succK537 for SIRT5].[59] The assays were carried out using the 1,4-DHP derivatives 2a–n and 3a–d against SIRT3, including the prototype compounds 2 and 3 as positive controls.
# N-terminally his-tagged human sirtuins were expressed in Escherichia coli using constructs in pET15b (Sirt1) or pET151D/Topo (Sirt3-114-380 and Sirt5-34-302).[4],[59],[61] Sirt2-43-356 was expressed from a modified pET19b containing a TEV protease cleavage site and an N-terminal SUMO-tag.[59],[79] Proteins were expressed and purified as described elsewhere.[59],[61],[79]−[81] In brief, proteins were expressed in E. coli, crude extracts were cleared by centrifugation, and the proteins were affinity purified using NiNTA beads.
# Sirtuin deacylation activities were analyzed by using a coupled enzymatic assay as described in.[59],[82] […]
# CAL-62 cells = experiment: Cell viability / cell death, trypan blue exclusion, CAL-62; format: cell-based; details: for reduction of cell viability: CAL-62, 50 μM; for EC50: CAL-62, 48 h, read-out: EC50 cell death induction
# Description: Afterward, the selected compounds 3a–d were assayed at 50 μM for 24 and 48 h in CAL-62 and MDA-MB-231 cells to assess their ability to impair the cell viability and colony formation in either normoxia or hypoxia-induced condition, the latter obtained by adding a 200 μM cobalt chloride solution, as described in previous reports[69] (Figure 8). Most cancer cells, mainly solid types, are known to have an altered metabolism due to hypoxia, a non-physiological level of oxygen tension, which contributes to therapy resistance by causing cellular quiescence.[70] Moreover, hypoxic cancer cells can induce several factors that lead to cell proliferation and colony formation.[71]
# Breast cancer cell line MDA-MB-231, anaplastic thyroid cancer cell line CAL-62 and human keratinocytes HaCaT were purchased from ATCC and were cultured in RPMI 1640 medium (R0883 Sigma Aldrich-MERCK) (MDA-MB-231 and CAL-62) or DMEM medium (11965092, Gibco) supplemented with 10% fetal bovine serum (Sigma-Aldrich-MERCK, F9665), 2 mM glutamine (G7513; Sigma-Aldrich-MERCK), 100 units/mL penicillin and 0.1 mg/mL streptomycin (P0781; Sigma-Aldrich-MERCK). Adherent cells were detached by Trypsin–EDTA solution (TA049; Sigma-Aldrich-MERCK). Cells were maintained at 37 °C in humidified incubator with 5% CO2. Cells were treated with […] (CoCl2) (Merck; C8661) dissolved in distilled, sterile water for 24 h to induce hypoxia (200 μM). Hypoxic and normoxic cells were also treated with 10/50 μM of the indicated compounds (dissolved in DMSO) for 48 h, maintaining the CoCl2 in the culture medium for hypoxic conditions. SIRT3 inhibitor 3-TYP was dissolved in DMSO and added to a final concentration of 1 μM for 24 and/or 48 h.
# as §1
SMILES,toxicity against healthy HaCaT cells (HaCaT cells),MDA-MB-231 cell migration (MDA-MB-231 cells),SIRT3 activation potency relative to reference 3 (human SIRT3) [fold],Cell death (%) T24 (HaCaT cells; 5 μM),Cell death (%) T48 (HaCaT cells; 5 μM),Cell death (%) T24 (HaCaT cells; 10 μM),Cell death (%) T48 (HaCaT cells; 10 μM),Cell death (%) T24 (HaCaT cells; 25 μM),Cell death (%) T48 (HaCaT cells; 25 μM),"Cell death (%) T48 (CAL-62 cells; CAL-62, 10 μM, 48 h)","reduction of cell viability (CAL-62 cells; 24 h, normoxia) [%]","reduction of cell viability (CAL-62 cells; 48 h, hypoxia (200 μM CoCl2)) [%]","reduction of cell viability (CAL-62 cells; 48 h, normoxia) [%]","EC50 (CAL-62 cells; Homo sapiens, hypoxia) [µM]","EC50 (CAL-62 cells; Homo sapiens, normoxia) [µM]","viability at 10 µM (CAL-62 cells; Homo sapiens, CAL-62, 10 μM, 24 h, read-out: Cell viability (%) T24) [%]",impairment of MDA-MB-231 migration rate (MDA-MB-231 cells)
"CCOC(=O)C1=CN(C(=O)c2ccc(OC)c(OC)c2)C=C(C(=O)OCC)C1c1ccccc1 [Compound 3c, Diethyl 1-(3,4-dimethoxybenzoyl)-4-phenyl-1,4-dihydropyridine-3,5-dicarboxylate]",negligible toxicity,nicely reduce,1.4,,,,,,,,,,,,,,
"CCOC(=O)C1=CN(C(=O)c2cc(OC)cc(OC)c2)C=C(C(=O)OCC)C1c1ccccc1 [Compound 3d, Diethyl 1-(3,5-dimethoxybenzoyl)-4-phenyl-1,4-dihydropyridine-3,5-dicarboxylate]",some degree of cell viability reduction and cell death only after 48 h treatment and at higher concentrations (10 and 25 μM),nicely reduce,,"3,9%","16,1%","8,4%","33,9%","15,3%","47,3%","36,6%",55,80,90,~3.5,~16.7,79.6,over 75%
"CCOC(=O)C1=CN(C(=O)c2cccc(OC)c2)C=C(C(=O)OCC)C1c1ccccc1 [Compound 3a, Diethyl 1-(3-methoxybenzoyl)-4-phenyl-1,4-dihydropyridine-3,5-dicarboxylate]",,,,,,,,,,,37,59,64,,,,
